Assay results from ChEMBL document CHEMBL5036330, “Discovery of 8,9-seco-ent-Kaurane Diterpenoids as Potential Leads for the Treatment of Triple-Negative Breast Cancer” (J Med Chem, 2021).
The source made the active and inactive calls. The rule behind the calls is not given here.

Tests used:
MDA-MB-231 = assay: Antitumor activity against human MDA-MB-231 cells xenografted in NOD/SCID mouse assessed as increase in TUNEL expression in tumor tissue at 5 to 10 mg/kg, ip treated for 33 days by immunohistochemical analysis; type: functional, organism-based; conditions: dose 5-10 mg/kg, time 33.0 day
MDA-MB-468 = assay: Induction of mitochondrial depolarization in human MDA-MB-468 cells assessed as aggregates at 5 uM in dark by JC10 staining based fluorescence microscopy (reference value: 91.6%); type: functional

What does the source list for C=C1C(=O)C2=C[C@H]1CCC(=O)[C@]1(C)[C@H](O)CCC(C)(C)[C@H]1C[C@H]2O?
Activity (MDA-MB-231): Active; Activity (MDA-MB-468): 13.3%
